Laboratory results taken from patent US6117849A, “S-(+)-adenosylmethionine and 3'-azido-2', 3'-dideoxy-nucleoside complexes as potent inhibitors of HIV-replication” (Symbio Herborn Group GmbH & Co., priority 1996, dated 2000).
Values joined by “and” are separate entries in the source; they are usually repeats but may differ in a detail not shown here. Identical values can stand only once. Like-named read-outs stand apart in the source and are kept apart here.

What was measured:
[1] = target: T1, reverse transcriptase (RT) (HIV-1 M:B_HXB2R, UniProt P04585); assay type: biochemical; parameters: A2: RT in cord-blood lymphocyte cultures infected with HIV from an AIDS patient; conditions: no DTT
[2] = test system: T-lymphocyte cell cultures; test: in vitro; conditions: for therapeutic index: in vitro, considering cytotoxicity
Protocol: (§1) Viability of the T cells was determined by means of a tetrazolium salt (MTT) metabolic assay.--(see also: Schwartz, O., et al., AIDS Rcs. Hum. Retroviruses, 4 441-448, 1988).

[3] = target: T1, reverse transcriptase (RT); assay type: biochemical; parameters: A2: RT in cord-blood lymphocyte cultures infected with HIV from an AIDS patient; conditions: for Ki: RT
Protocol: The second in-vitro test uses the enzymatic activity of RT, testing the kinetic and inhibitory action of the molecular complexes. The cloning of the RT in biologically active form made it possible to have large quantities of the RT enzyme available for these studies (RT from Sigma, lot # R 9376).
The steady state reaction conditions for RT are chosen that approximate physiological conditions are met: pH 7.45 (37° C.), ionic strength of 150 mM, routinely a buffer was employed consisting of 50 mM TRIS-HCl, 100 mM KCl, 5 mM MgCl2, the addition of 10 μg/mL bovine serum albumin were included. […] The aforementioned precautions designed to avoid potential reduction of SAM in the presence of DTT are taken into accounts to preclude any distortions of the kinetic behavior of the RT enzyme in the presence of the various substrates e.g. as our molecular compounds. […] The enzyme concentrations of RT was approx. 20 nM, T-P (template-primer) […] and 25 μM of [^3 H]-dNTP (assay conditions are modified fro those of Mayunder et al., J. biol. Chem.,263, 15657, 1988). […] In case both parameters are effected to the same extent, then the inhibition is uncompetitive. In order to facilitate the difference between SAM kinetics and those for the molecular complexes we studied first SAM kinetics and subsequently the kinetics in the presence of the molecular complexes. […] Similar experiments have been carries out with dGTP.
The enzyme was assayed with 50 nM primer sites on poly (rA): oligo (dT), and variable concentrations of [^3 H] dTP as substrates in a reaction mixture as described above at pH 7.5 (37° C.).

[4] = in vitro; conditions: t-lymphocyte cultures
Protocol: as §1

[5] = target: T1, reverse transcriptase (RT); test: In vitro RT inhibition assay with F-dUP/F-dU or THF; assay type: biochemical; parameters: A2: RT in cord-blood lymphocyte cultures infected with HIV from an AIDS patient
[6] = AZT; cited from earlier work
[7] = in vivo; cited from earlier work
[8] = test system: HIV-1 isolate of HIV IIB; test: HIV replication in de novo infected lymphocyte cultures, viral core protein p24 endpoint; assay type: cell-based, HIV-1 (in human peripheral blood lymphocytes)
Protocol: For this purpose, SAM has been tested in a dose response titration ranging from 1000 μg/mL to 10 μg/mL final concentrations for the ability to inhibit HIV replication in de novo infected cells. Endpoint in this assay was the quantitative determination of the concentration of the viral core protein p24 as described by Mueller et al. (Mueller, Ch., Moritz, R., Prigge, G., Weitzel, D., Kunze, R., Kage, A., Koettgen, E., Fresenius Z. Anal. Chem.,330, 352-353, 1988). […] The toxicity testing of cellular proliferation was performed according to J. Mosmann (J. Immunological Methods, 65, 55-63, 1983). […] All experiments were carried out in triplicate cultures, including those for the various concentrations of the molecular complexes tested.--The lymphocytes were infected with a standardized preparation of HIV-1 isolate of HIV IIB. The cells were sedimented by low speed centrifugation, the sediment resuspended in the assay buffer (standard), and the resuspended cells were inoculated by adjusting to the following conditions: 100 ng of viral core protein p24/mL and 3200 pg HIV RNA/mL, respectively. Normally 3×10^8 lymphocytes were suspended in 1 mL if the HIV inoculum, and incubated at 37° C. for 60 minutes. After washing the cells twice with 50 mL of culture medium the cells were resuspended at a concentration of 3×10^6 cells/mL in culture medium which contains 10 units/mL of human recombinant interleukin-2. 100 μL of this cell suspension were added to 100 μL of the pre-diluted solution of the compounds to be tested, without adding any salt or protein. The entire assay was cultivated in humidified atmosphere in the presence of 5% CO2 at 37° C. After the 4th day of infection the viral replication was determined in the lymphocyte cultures. The end point of the titration was the determination of the viral core protein p24 in the supernatant of each of the lymphocyte cultures. 150 μL of the supernatant were removed and transferred to a vial containing 50 μL/well SDS at a final concentration of 0.08% (w/w). The concentration of the synthesized p24 by the HIV infected cells was determined according to Mueller et al., using recombinant p24 as a standard for calibration.

[9] = SAM and AZT levels in HIV-infected patients (plasma, CSF)
[10] = target: T1, reverse transcriptase (RT); conditions: read-out: inhibiting concentration, 50% of RT activity; tosylate-bis-sulfate salt, with DTT; cited from earlier work
[11] = Intracellular metabolism to the triphosphate; assay type: in vitro ADME
[12] = Stability / half-life in human plasma (chiral HPLC, fluorescence)
Excerpt: In order to determine the stability of these complexes in physiological conditions, the half-life times of the compounds were estimated in human plasma after separation on a chiral column and using a HPLC apparatus applying, monitoring the fluorescence of both components at 310 nm (excitation at 278 nm) after complete separation of the two peaks.

[13] = test system: HIV; test: HIV replication in T-lymphocyte cell cultures (cytotoxic effect and p24 production); assay type: cell-based
[14] = test system: mitochondrial DNA replication; conditions: vs AZT
[15] = test system: human peripheral blood lymphocytes; test: Cell toxicity by proliferation test in lymphocyte cultures
Protocol: For this purpose, SAM has been tested in a dose response titration ranging from 1000 μg/mL to 10 μg/mL final concentrations for the ability to inhibit HIV replication in de novo infected cells. Endpoint in this assay was the quantitative determination of the concentration of the viral core protein p24 as described by Mueller et al. (Mueller, Ch., Moritz, R., Prigge, G., Weitzel, D., Kunze, R., Kage, A., Koettgen, E., Fresenius Z. Anal. Chem.,330, 352-353, 1988). […] The toxicity testing of cellular proliferation was performed according to J. Mosmann (J. Immunological Methods, 65, 55-63, 1983). […] All experiments were carried out in triplicate cultures, including those for the various concentrations of the molecular complexes tested.--The lymphocytes were infected with a standardized preparation of HIV-1 isolate of HIV IIB. The cells were sedimented by low speed centrifugation, the sediment resuspended in the assay buffer (standard), and the resuspended cells were inoculated by adjusting to the following conditions: 100 ng of viral core protein p24/mL and 3200 pg HIV RNA/mL, respectively. […] After the 4th day of infection the viral replication was determined in the lymphocyte cultures. […] The concentration of the synthesized p24 by the HIV infected cells was determined according to Mueller et al., using recombinant p24 as a standard for calibration.

[16] = rapidly dried in vacuo, water-free
[17] = test system: IL-β, IL-2; test: Cytokine biosynthesis after stimulation of lymphocytes; assay type: cell-based; conditions: after phytohemagglutination stimulation
[18] = test system: bone marrow stem cells; conditions: vs AZT
[19] = no DTT, pH 7.45-7.5, 37° C., read-out: KM
[20] = HIV replication, p24, standard conditions
[21] = addition of human serum albumin
[22] = 1 h, complex: 400 mg SAM equivalent 250 mg AZT

With “3'-azido-2',3'-2'-fluorothymidine [F))/AZT (AZT (2']” the kcat [1] was 2.9 min⁻¹, the therapeutic index [2] was 7.000 and the Ki ([3]; no DTT) was 100 ± 10 nM. It also gave a Km [3, 19] of 500 ± 10 nM.
For “3'-azido-2',3'-dideoxyadennine [SAM/AZA]”, the kcat [1] was 1.7 min⁻¹, the therapeutic index [2] was 4.500 and the Ki ([3]; no DTT) was 280 ± 20 nM. For the same compound, the Km [3, 19] was 710 ± 20 nM.
In the case of “3'-azido-2',3'-dideoxyguanosine [SAM/AZG]”, the kcat [1] is reported as 3.0 min⁻¹, the therapeutic index [2] is reported as 5.700 and the Ki ([3]; no DTT) is reported as 240 ± 10 nM. The Km [3, 19] was 700 ± 20 nM.
Compound 3'-azido-2',3'-dideoxyinosine [SAM/AZI] has a kcat [1] of 2.1 min⁻¹, a Ki ([3]; no DTT) of 130 ± 15 nM and a Km ([3]; read-out: KM) of 410 ± 30 nM.
3'-azido-2',3'-dideoxyuridine [SAM/AZU] gave a kcat [1] of 2.1 min⁻¹ and a Km ([3]; read-out: KM) of 690 ± 15 nM.
With `C[S+](CC[C@H](N)C(=O)O)C[C@H]1O[C@@H](n2cnc3c(N)ncnc32)[C@H](O)[C@@H]1O` (single isomer, unassigned) [SAM C1] the selectivity ratio [4] was 2.1, the Km [3] was 530 ± 20 nM and the kcat [3] was 19 min⁻¹ and 15 min⁻¹.
For `c1ncc2c(n1)NCCN2` [5,6,7,8-tetrahydropteridine (THF), 5,6,7,8-tetrahydropteridine], the “effect on inhibition of RT” value [5] was “no significant inhibition of the RT”.
For `Cc1cn([C@H]2C[C@H](N=[N+]=[N-])[C@@H](CO)O2)c(=O)[nH]c1=O` [AZT, 3'-azido-2',3'-deoxythymidine], the plasma half-life [6] is given as 1 h, the “side effects upon prolonged administration” value [7] is given as “peripheral neuropathological effects” and the “toxicity at increased dose” value [7] is given as “bone marrow toxicity”. The kcat [3] was “approx. 1.5 sect^-1”, the “inhibition of HIV replication” value ([8]; FIG. 1, p24) was “inhibited HIV replication in a dose dependent response” and the Cmax ([9]; human, plasma, 250 mg) was 2500 ng/mL.
With `O=c1[nH]c(=O)n([C@H]2C[C@H](O)[C@@H](CO)O2)cc1F` [F-dU] the “effect on inhibition of RT” value [5] was “no influence on the inhibition of RT”.
With `[3H]C12CNc3nc(N)[nH]c(=O)c3N1CN(c1ccc(C(=O)N[C@@H](CCC(=O)O)C(=O)O)cc1)C2` (stereo partly drawn) [N^5, N^10-methylene-6-[^3 H]-THF] the “effect on inhibition of RT” value [5] was “no significant inhibition of the RT”.
With `C[S+](CC[C@H](N)C(=O)O)C[C@H]1O[C@@H](n2cnc3c(N)ncnc32)[C@H](O)[C@@H]1O` (stereo partly drawn) [SAM ts HSO4 H2 SO4] the selectivity ratio [4] was 2.4, the Km [3] was 510 ± 20 nM and the kcat [3] was 20 min⁻¹ and 18 min⁻¹. For the same compound, the IC50 [10] was 250 to 501 µM.
For `Nc1ccn([C@H]2CC[C@@H](CO)O2)c(=O)n1` [ddC], the “side effects upon prolonged administration” value [7] is listed as “peripheral neuropathological effects”.
For “(+)-SAM-3'-azido-2',3'-dideoxythymidine complex [SAM/AZT]”, the 50% cytotoxicity ([2]; MTT, as mass concentration of complex) was roughly 15.5 µg/mL, the CC50 ([2]; read-out: 50% cytotoxicity, MTT) was 250 µM and the “accumulation / conversion to triphosphate” value [11] was “does not accumulate, but being readily converted to the triphosphate derivative”. The “half-life of SAM” value ([12]; from AZT-SAM complex) was “more than 10 h”, the “half-life of SAM, average” value ([12]; from AZT-SAM complex) was 12 h and the “half-life of AZT” value ([12]; from the complex, depends on load) was 2 to 3 h. For the same compound, the maximum inhibition ([13]; inhibition of the cytotoxic effect) was 100%, the IC50 ([13]; p24 production, read-out: IC50, inhibition of p24 production) was 10 nM and the “toxicity/inhibition of mitochondrial DNA replication” value [14] was “less toxic as well as inhibitory to mitochondrial DNA replication”. For the same compound, the “increase of the cell toxicity” value ([15]; SAM-AZT complex compared with SAM alone) was “approx. 35%”, the “cell toxicity with respect to AZT alone” value ([15]; vs AZT alone) was “considerable of reduction of cell toxicity” and the hygroscopicity [16] was “hygroscopic”. The “inhibitory constant Ki(1), at 50% inhibition” value [8, 20] was “≈ 0.9 ng/mL”, the “inhibitory constant Ki(2), at 50% inhibition” value [8, 20] was “≈ 12.5 μg/mL” and the “Ki (first, low)” value [8, 21] was 0.5 to 0.8 ng/mL. For the same compound, the “Ki (second, high)” value [8, 21] was roughly 10 µg/mL, the “Ki (first, low)” value ([8]; ionic strength 0.075 M) was 0.6 to 0.8 ng/mL and the “Ki (second, high)” value ([8]; ionic strength 0.075 M) was 8 to 10 µg/mL. The “cytokine biosynthesis (IL-β, IL-2)” value [17] was “enhanced significantly”, the “toxicity for bone marrow stem cells” value [18] was “less toxic than AZT” and the “AZT level (almost 50% of that in plasma)” value [9, 22] was 0.25 µg/mL. The SAM level [9, 22] was 600 ng/mL, the pharmacokinetic behaviour ([9]; HIV patients) was “lower elimination rate for SAM” and the “dose reduction of AZT” value ([9]; administered as complex with SAM) was “approx. 30%”. The “increase of SAM and AZT levels in CSF and plasma” value ([9]; approved dose 250 mg AZT at 4 h intervals) was 25-30% and the “AZT level in plasma” value ([9]; complex: 400 mg SAM equivalent 250 mg AZT) was 0.543 µg/mL.
